Data set [1] has as its system HeLa. The data set is described as follows: Cytotoxicity against human HeLa cells overexpressing MCT-1 assessed as reduction in cell viability measured after 72 hrs by MTT assay. Format: functional, cell-based. (Tetrazolium dyes change colour on reduction, which living cells bring about.)
The subject of data set [2] is HCT-116. In words: Cytotoxicity against human HCT-116 cells overexpressing MCT-1 assessed as reduction in cell viability measured after 72 hrs by MTT assay. The class given is functional, cell-based. Particulars: HCT-116, 72 h.
Data set [3] has as its system NCM460. The data set is described as follows: Cytotoxicity against human NCM460 cells harboring low MCT1 expression incubated for 72 hrs by MTT assay. Format: cell-based. The following applies: ncm460, 72 h.
Data set [4] relates to HCT-116. The data set is described as follows: Induction of apoptosis in human HCT-116 cells assessed as early apoptosis measured after 48 hrs by annexinV-FITC/propidium iodide staining based by flow cytometry (reference value: 3.42 %). Format: functional. (Flow cytometry measures light scatter and fluorescence of single cells or particles in a stream.)
In data set [5] the test system is HCT-116. In words: Reduction of lactate production in human HCT-116 cells at IC50 after 4 to 24 hrs by colorimetric assay. Particulars: time 4-24 hrs. The class given is functional, cell-based.
Data set [6] has as its system HeLa. In words: Inhibition of lactate transport in human HeLa cells assessed as increase in intracellular lactate level at IC50 measured after 8 to 24 hrs by colorimetric assay. Format: functional, cell-based. The following applies: time 8-24 hrs.
The test system of data set [7] is HCT-116. The data set is described as follows: Induction of apoptosis in human HCT-116 cells assessed as late apoptotic cells measured after 48 hrs by annexinV-FITC/propidium iodide staining based by flow cytometry (reference value: 2.78 %). Format: functional.
In data set [8] the test system is HeLa. The data set is described as follows: Induction of apoptosis in human HeLa cells assessed as late apoptotic cells measured after 48 hrs by annexinV-FITC/propidium iodide staining based by flow cytometry (reference value: 3.85 %). The class given is functional.
For data set [9], the system named is HeLa. The data set is described as follows: Reduction of lactate production in human HeLa cells at IC50 after 8 hrs by colorimetric assay. The class given is functional, cell-based.
Data set [10] deals with HeLa. In words: Induction of apoptosis in human HeLa cells assessed as early apoptosis measured after 48 hrs by annexinV-FITC/propidium iodide staining based by flow cytometry (reference value: 2.94 %). The class given is functional.
Data set [11] deals with HCT-116. In words: Decrease in glucose consumption in human HCT-116 cells at IC50 after 4 to 24 hrs by glucose oxidase based colorimetric assay. The following applies: time 4-24 hrs. The class given is functional, cell-based.
For data set [12], the system named is HCT-116. In words: Antiproliferative activity against human HCT-116 cells assessed as reduction in cell proliferation at IC50 incubated for 6 days and measured on day 6 by MTS assay. The class given is functional, cell-based. Particulars: time 6.0 day.
For data set [13], the system named is HeLa. In words: Decrease in intracellular glucose level in human HeLa cells at IC50 after 4 hrs by colorimetric assay. Format: functional, cell-based.
Data set [14] relates to HeLa. In words: Antiproliferative activity against human HeLa cells assessed as reduction in cell proliferation at IC50 incubated for 6 days and measured on day 6 by MTS assay. The following applies: time 6.0 day. Format: functional, cell-based.
The test system of data set [15] is HeLa. The data set is described as follows: Inhibition of lactate uptake in human HeLa cells at high concentration after 24 hrs by colorimetric assay. Format: functional, cell-based.
Data set [16] has as its system HCT-116. In words: Downregulation of MCT1 expression in human HCT-116 cells at 0.01 to 100 uM measured after 48 hrs by Western blot analysis. The class given is functional, cell-based. Particulars: dose 0.01-100 µM. On the technique in general: A western blot detects proteins with antibodies after separation by electrophoresis.
Data set [17] relates to HeLa. In words: Decrease in glucose consumption in human HeLa cells at IC50 after 12 hrs by glucose oxidase based colorimetric assay. The class given is functional, cell-based.
Data set [18] concerns HCT-116. The data set is described as follows: Inhibition of lactate uptake in human HCT-116 cells at 0.01 to 100 uM after 24 hrs by colorimetric assay. Format: functional, cell-based. The following applies: dose 0.01-100 µM.
In data set [19] the test system is HCT-116. In words: Inhibition of lactate transport in human HCT-116 cells assessed as increase in intracellular lactate level at IC50 measured after 8 hrs by colorimetric assay. Format: functional, cell-based.
In data set [20] the test system is HCT-116. The data set is described as follows: Decrease in intracellular glucose level in human HCT-116 cells at IC50 after 4 hrs by colorimetric assay. Format: functional, cell-based.
Data set [21] deals with HeLa. In words: Inhibition of lactate uptake in human HeLa cells at low concentration after 24 hrs by colorimetric assay. Format: functional, cell-based.
Data set [22] has as its system HCT-116. The data set is described as follows: Decrease in intracellular glucose level in human HCT-116 cells at IC50 after 24 hrs by colorimetric assay. The class given is functional, cell-based.
Data set [23] has as its system HeLa. The data set is described as follows: Decrease in intracellular glucose level in human HeLa cells at IC50 after 24 hrs by colorimetric assay. Format: functional, cell-based.
Data set [24] concerns HeLa. The data set is described as follows: Downregulation of MCT1 expression in human HeLa cells at 0.01 to 100 uM measured after 48 hrs by Western blot analysis. Particulars: dose 0.01-100 µM. The class given is functional, cell-based.

Active and inactive are the calls of the source. The rule behind the calls is not given here.

Turning to `O=C(NCCNC(=O)c1cc2ccc(OCc3ccc([N+](=O)[O-])cc3)cc2oc1=O)c1cc2ccc(OCc3ccc([N+](=O)[O-])cc3)cc2oc1=O`, the IC50 (as a rule, the midpoint of a concentration-inhibition curve) is 13.9 µM in [1] and 68.1 µM in [2]. Moreover, the Activity result in data set [3] is reported as “Non-Toxic”.
On to `O=C(NCCO)c1cc2ccc(OCc3cccc(Br)c3)cc2oc1=O`, for which the IC50 in data set [1] turned out to be 17.6 µM; in data set [2] it was 30.8 µM. Further, the Activity entry in [3] is on record as “Non-Toxic”.
With `O=C(NCCNC(=O)c1cc2ccc(OCc3ccccc3)cc2oc1=O)c1cc2ccc(OCc3ccccc3)cc2oc1=O`, the IC50 in data set [1] was determined as 12.1 µM; in data set [2], 15.9 µM. Further, in [3], the Activity entry is on record as “Non-Toxic”.
For the molecule `CCCOc1ccc2cc(C(=O)NCCO)c(=O)oc2c1`, the half-maximal inhibitory concentration (IC50) in data set [1] is 22.6 µM; in data set [2] it was more than 100 µM. In addition, the Activity entry in data set [3] is “Non-Toxic”.
As for `O=C(NCCO)c1cc2ccc(OCc3ccc([N+](=O)[O-])cc3)cc2oc1=O`, the half-inhibitory concentration (IC50) in data set [1] is 6.89 µM; in data set [2], 33.4 µM. Besides, the Activity entry in data set [3] was “Non-Toxic”.
Regarding `O=C(NO)c1cc2ccc(OCc3ccccc3)cc2oc1=O`, the IC50 in data set [1] is 31.8 µM; in [2], 39.5 µM. Further, the Activity result in [3] was “Non-Toxic”.
Turning to `O=C(NCCO)c1cc2ccc(OCc3ccccc3)cc2oc1=O`, the values for the IC50 in data set [1] and in data set [2] were 14.2 µM and 18.7 µM, respectively. In addition, the Activity result in data set [3] is recorded as “Non-Toxic”.
Consider `O=C(NCCNC(=O)c1cc2ccc(OCc3cccc(Br)c3)cc2oc1=O)c1cc2ccc(OCc3cccc(Br)c3)cc2oc1=O`, for which the values for the concentration for half-maximal inhibition (IC50) in data set [1] and in data set [2] were 5.52 µM and 11.6 µM, respectively. In addition, in data set [3], the Activity result was “Non-Toxic”.
In the same order, the values of `NNC(=O)c1cc2ccc(OCc3ccccc3)cc2oc1=O` are more than 100 µM, more than 100 µM and “Non-Toxic”.
Regarding `O=C(Nc1ccccc1)c1cc2ccc(OCc3ccccc3)cc2oc1=O`, the IC50 in data set [1] and in [2] was more than 100 µM each time. Besides, in [3], the Activity result was “Non-Toxic”.
As to `O=c1c(O)c(-c2ccc(O)c(O)c2)oc2cc(O)cc(O)c12` [QUERCETIN], the IC50 in [1] came to 22.5 µM; in data set [2] it was 43.9 µM. Moreover, the Activity is recorded as 5.35% in data set [4]; 10.3% in data set [7]; 14.2% in [8]; “Non-Toxic” in data set [3]; 4.92% in [10]. For the same molecule, the inhibition entry in data set [5], in data set [6], in [9], in [11] and in data set [13] was “Active” each time. Besides, in data set [12], the outcome was Active.
Turning to `N#C/C(=C\c1ccc(O)cc1)C(=O)O` [alpha-CYANO-4-HYDROXYCINNAMIC ACID], the IC50 was 2140 µM in data set [1] and 1650 µM in data set [2]. The Activity in data set [4] is reported as 2.07%; in data set [7] it was 9.36%; in data set [8], 13.6%; in data set [3], “Non-Toxic”; in data set [10] it was 8.8%. Moreover, the inhibition entry in data set [5], in data set [6], in [9], in [11] and in data set [13] was “Active” throughout. Besides, in data set [14], the result was Active.
Regarding `CCOc1ccc2cc(C(=O)NCCO)c(=O)oc2c1`, the IC50 in [1] and in data set [2] was more than 100 µM in each case. Also, the Activity result in data set [3] is listed as “Non-Toxic”.
In the case of `CCN(CC)c1ccc2cc(C(=O)NC3CC3)c(=O)oc2c1`, the IC50 in data set [1] and in [2] was more than 100 µM each time. The Activity result in [3] is “Non-Toxic”.
With `CCN(CC)c1ccc2cc(C(=O)N/N=C(/C)c3cccs3)c(=O)oc2c1`, the IC50 in data set [1] and in data set [2] was more than 100 µM throughout. Also, in data set [3], the Activity result is “Non-Toxic”.
As to `CCOc1ccc2cc(C(=O)NN)c(=O)oc2c1`, the IC50 is 38.3 µM in data set [1] and more than 100 µM in [2]. Moreover, the Activity entry in data set [3] is on record as “Non-Toxic”.
Take `CCCOc1ccc2cc(C(=O)NN)c(=O)oc2c1`: the IC50 in [1] was more than 100 µM; in [2], 69.8 µM. Also, the Activity entry in data set [3] is reported as “Non-Toxic”.
For the molecule `CCN(CC)c1ccc2cc(C(=O)N/N=C(/C)c3cccnc3)c(=O)oc2c1`, the concentration for half-maximal inhibition (IC50) is 70 µM in [1] and more than 100 µM in data set [2]. The Activity entry in [3] is listed as “Non-Toxic”.
Take `CCN(CC)c1ccc2cc(C(=O)NO)c(=O)oc2c1`: the IC50 in [1] amounted to 35.9 µM; in [2] it was 37.6 µM. Further, in data set [3], the Activity entry is recorded as “Non-Toxic”.
Turning to `CCN(CC)c1ccc2cc(C(=O)NC(C)C)c(=O)oc2c1`, the IC50 is 73 µM in data set [1] and more than 100 µM in data set [2]. For the same molecule, the Activity entry in data set [3] was “Non-Toxic”.
Consider `CCN(CC)c1ccc2cc(C(=O)NN)c(=O)oc2c1`, for which the figures for the IC50 in [1] and in [2] were 5.48 µM and 3.36 µM, respectively. The Activity is 2.52% in data set [4]; 5.94% in data set [7]; 6.47% in data set [8]; “Non-Toxic” in data set [3]; 5.28% in data set [10]. In addition, the inhibition result in [15] and in data set [22] was “inactive” throughout. In addition, the inhibition entry in data set [16], in data set [5], in data set [17], in data set [18], in data set [6] and in [19] was “Active” throughout. The inhibition result in data set [20], in [21], in [9], in [23], in [11] and in data set [24] was “Active” throughout. Besides, the result in data set [14] and in data set [12] was Active.
Consider `CCN(CC)c1ccc2cc(C(=O)NCCO)c(=O)oc2c1`, for which the IC50 in [1] and in data set [2] was more than 100 µM in each case. Also, the Activity entry in data set [3] was “Non-Toxic”.
`NNC(=O)c1cc2ccc(OCc3ccc([N+](=O)[O-])cc3)cc2oc1=O`: the IC50 in data set [1] and in data set [2] was more than 100 µM each time. For the same molecule, the Activity entry in [3] is recorded as “Non-Toxic”.
In the case of `NNC(=O)c1cc2ccc(OCc3cccc(Br)c3)cc2oc1=O`, the IC50 in [1] and in data set [2] was more than 100 µM throughout. Also, the Activity result in data set [3] is “Non-Toxic”.

The values above are taken from ChEMBL document CHEMBL4673309, “Synthesis and anticancer activity of new coumarin-3-carboxylic acid derivatives as potential lactatetransportinhibitors” (Bioorg Med Chem, 2021).
